The conditions of data set [1]: occupational exposure; cited from earlier work.
The subject of data set [2] is human proximal tubule (HPT) cells. To be noted: normally proliferating cultured HPT cells; cited from earlier work.
Data set [3] can be described thus: Case report Patient 2, ingestion of antifreeze containing 30% propylene glycol. The class given is in vivo, human. How it is done:
Example 2. A person ingested an unknown amount of the antifreeze Freeze Proof containing 30% propylene glycol earlier. Following ingestion, the child acted normally and ate well until approximately 6 hours later when they developed slurred speech, right facial drooping, an abnormal, wobbling gait, and was noted walking into walls and unable sit up by […]. They were the brought to the emergency room approximately 12 hours after ingestion with the above symptoms. At that time a toxicological screen was obtained which was qualitatively positive for propylene glycol. They were then transferred to University Medical Center where their blood pressure was 106/70, pulse was 113, respiration was 18, temperature was 36.3 C. At that time they had slurred speech, good facial symmetry, intact cranial nerve examination, but an unsteady gait, and was drowsy and lethargic but arousable. Their pupils were equal and reactive to light. […] The child was given a charcoal and sorbitol lavage through an oral naso-gastric tube as well as IV fluid therapy with normal saline. Within 4 hours of admission, the child was able to walk and talk well without evidence of slurred speech. The following morning the child was discharged from the hospital with no evidence of the symptoms originally observed.

The conditions of data set [4]: diet containing 6 or 12% propylene glycol; cited from earlier work.
Data set [5] relates to CD34+CD38- hematopoietic stem cells. The data set can be described thus: Colony formation from CD34+CD38- hematopoietic stem cells in semi-solid culture. The note with it: 500 cells per ml, 14 days, Figure 1. The data set is classed as cell-based, human. The method, then: Example 3. CD34+CD38- cells isolated from human bone marrow (Poietic Technologies) were counted using a hemocytometer and plated in semi-solid culture media (MethoCult GF+H4435, StemCell Technologies, Vancouver, British Columbia) containing methylcellulose, fetal bovine serum, BSA, recombinant human (rh) SCF, rh GM-CSF, rh G-CSF, rh IL-3, rh IL-6, rh erythropoietin, and L-glutamine to which were added varying concentrations of propylene glycol (FW=76.1 Density=1.04g/ml Fisher Scientific). The cells were plated at a density of 500 cells per 1 ml per 35 mm petri dish. After incubation at 37 °C, 5% CO2 for 14 days, the dishes were scored for colony formation.

The subject of data set [6] is Murine bone marrow cells. The data set can be described thus: Long term culture initiating cell assay (LTCIC). The class given is cell-based, C57bl mice. The note with it: 500 ng/ml, Figure 2. The method, then: Example 4. Murine bone marrow was obtained from the femurs of adult C57bl mice, suspended in Myelocult (Stem Cell Technologies, Vancouver Canada), and cells were isolated by centrifugation at 500g for 10 minutes at 4 °C. Viability was determined by Trypan blue exclusion and aliquots were taken for plating efficiency in methylcellulose culture (MethoCult, Stem Cell Technologies). The remaining cell suspension was plated at a density of 6.25 x10^4/well into 24 well plates containing irradiated FBMD-1 feeder layers. To appropriate wells, propylene glycol was added to final concentration of 500 ng/ml. At weekly interval the cells were demidepopulated and fed with 250μl fresh medium. The harvested cells were washed with PBS and added to a 2.5 ml tube of MethoCult. Two 35mm petri dishes containing 1 ml each were plated from each tube. After 10 days incubation at 37 °C, 5% CO2, the dishes were scored for colonies.

The conditions of data set [7]: human, in vivo. The source says: Example 1. Patient 1 was a person with a history of congenital aqueductal stenosis diagnosed and treated with a Torkildson shunt. Nineteen months prior to admission, they sustained a minor head injury in a motor vehicle accident resulting in a shunt malfunction with recurrent headaches, necessitating treatment with a ventriculoperitoneal shunt. Consequent subdural hygromas became infected, leaving the patient with marked cognitive and motor impairments. They were transferred to a rehabilitation facility six months prior to admission to our hospital. […] All biochemical and hematologic abnormalities resolved within 36 hours. The patient remained well until four weeks prior to admission when they again developed fever (106), tachycardia (169 bpm), and tachypnea. Similar biochemical and hematological abnormalities were noted including a white blood cell count of 25,000 (per mm^3) and a thrombocyte count of 469,000 (per mm^3). Cultures of blood, urine, and CSF were negative. Within 36 hours the patient returned to baseline. Similar episodes were noted to occur at roughly seven day intervals. CT scans of chest, abdomen and pelvis, and a gallium scan were unremarkable. After the fourth recorded episode, the patient was transferred to our neurological unit for evaluation of an occult ventriculoperitoneal shunt infection or possible hypothalamic dysregulation.
On transfer, the patient was noted to have BP 120/80, HR 88 bpm and T 37.5. The general physical examination was notable only for generalized pallor and contractures of the lower extremities. They were awake but only able to follow single midline one-step commands. […] The patient was treated with kayexalate. The anion gap acidosis resolved within twelve hours. At that time, the patient was noted to develop oliguric renal insufficiency with a BUN of 41 (mg/dl) and creatinine of 2.2 (mg/dl). […] An unusual "green stool" which caked the patient's rectum was collected. Samples of the patient's blood, urine, and stool (collected 17 hours after the recorded onset of symptoms) were sent for toxicologic analysis. […]
In addition, prominent throughout the aspirate were eosinophils, mast cells as well as eo-basophils. Megakaryocytes were abundant.

For data set [8] the following is noted: single oral dose; cited from earlier work.
The conditions of data set [9]: accidental intoxication, cited from earlier work.

Data on two compounds can be found in patent publication US20030036567A1, “PROPYLENE GLYCOL AS AN AGENT TO STIMUATE THROMBOPOIESIS” (priority 2001, published 2003).

Like-named read-outs stand apart in the source and are kept apart here.

On to `COC(C)COC(C)CO` (stereo not shown) [dipropylene glycol monomethyl ether], for which, in data set [1], the bone marrow findings result is “generally hypocellular marrow with decreased myeloid to erythroid ratios and an abundance of stored iron”.
With `CC(O)CO` (stereo not shown) [propylene glycol, 1,2-propanediol], the “concentration with toxic effects” value in data set [2] is 50000 µM. The “biochemical or hematological outcome” value in data set [3] is listed as “no biochemical or hematological abnormalities”. In addition, the erythrocyte effects entry in data set [4] is “accelerated erythropoiesis and reduction in red blood cell life span”. Besides, the “effect on CFU formed from CD34+ cells” value in [5] is on record as “increased CFU formed from CD34+ cells”. For the same compound, the “increase of total cell number on the cultures over cells not exposed” value in [6] is on record as 50%. For the same compound, in data set [7], the BUN is 41 mg/dL, the LDH worked out at 528 U/liter, the SGOT turned out to be 151 U/liter and the anion gap amounted to 24. In addition, in data set [7], the bicarbonate worked out at 16 mmol/L; the bone marrow studies result is “relatively hypercellular marrow with increased myeloid precursors and megakaryocytes”; the creatinine came out at 2.2 mg/dL; the creatinine kinase was 8400 U/liter. Moreover, in data set [7], the “hematologic response to acute exposure” value is “dramatic leukocytosis and thrombocytosis”; the potassium turned out to be 5.8 mmol/L. For the same compound, the spleen weight entry in data set [8] is “significant increase in spleen weight”. Also, the WBC in data set [9] (chart review) is 25,000 per mm^3. In addition, the anion gap in data set [9] is 28.
